The text below walks through data of ChEMBL document CHEMBL1201862, “PubChem BioAssay data set” (2004).

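These data come from cells grown in 96-well plates and exposed to compound for 48 hours at five concentrations. GI50 is the concentration that inhibits growth by half.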 Activity calls are given as the source filed them. Cut-off read from the data, not from the text of the source: active = GI50 up to about 1.1 µM and inactive = higher. Where a SMILES comes first, the peptide text is derived from it. [ ]: non-standard residue; d: D form. Hiv = CC(C)[C@H](O)C(=O)O Where only a bound is given, the exact number is not on record here.

Among the test systems are HOP-92; T47D; LOX IMVI; M14; 786-0; ACHN; UO-31; MDA-MB-231; HT-29; K562; Malme-3M; PC-3; MDA-MB-435; MOLT-4; HOP-62; HCT-15; SK-MEL-28; SF-268.
Holding throughout (experiment): growth of human tumour cells (NCI), 48 h

Take `O=Cc1ccc2c(c1)CC1(Cc3ccccc3C1)C2`: the GI50 in the test on HOP-92 is 16.4 µM (inactive); in the test with T47D it was 25.9 µM (inactive); in the test with LOX IMVI, 18.4 µM (inactive); with M14, 13.1 µM (inactive); in the test on 786-0, 14.2 µM (inactive); with ACHN, 22.1 µM (inactive). For the same molecule, the GI50 was 31.3 µM (inactive) in the test on UO-31; 13.5 µM (inactive) in the test with MDA-MB-231; 23.4 µM (inactive) in the test on HT-29; 22.1 µM (inactive) with K562; 18.2 µM (inactive) with Malme-3M; 25.9 µM (inactive) with PC-3. Moreover, the GI50 is 16.7 µM (inactive) with MDA-MB-435, 18.4 µM (inactive) in the test with MOLT-4, 16.1 µM (inactive) in the test on HOP-62 and 11.5 µM in the test with HCT-15.

Turning to `O=C1c2cccc(O)c2C(=O)c2c(OC3OC(CO)C(O)C(O)C3O)cccc21` (centres undefined), the GI50 in the test on HOP-92 is 73.8 µM (inactive); in the test with SK-MEL-28, > 100 µM (inactive); with T47D it was 20.4 µM (inactive); in the test with LOX IMVI, 37.5 µM (inactive); with M14, 21.5 µM (inactive); in the test with 786-0 it was 22.2 µM (inactive). The GI50 is 61.7 µM (inactive) in the test with ACHN; 35.2 µM (inactive) in the test on UO-31; 22.9 µM (inactive) in the test with SF-268; 21.3 µM (inactive) in the test with MDA-MB-231; 33.3 µM (inactive) with HT-29; 48 µM (inactive) in the test on K562. The GI50 in the test with Malme-3M is 6.12 µM (inactive); in the test with PC-3 it was 24.5 µM (inactive); in the test on MDA-MB-435, 18.2 µM (inactive); with HOP-62 it was 46.3 µM (inactive); in the test with HCT-15, 20.6 µM.

Consider `CC(=O)Oc1ccc(/C=C/C(=O)O[C@@H](C(=O)O)[C@@H](OC(=O)/C=C/c2ccc(OC(C)=O)c(OC(C)=O)c2)C(=O)O)cc1OC(C)=O`, for which the GI50 in the test with HOP-92, in the test on SK-MEL-28, with T47D, with LOX IMVI, in the test on M14 and with 786-0 was > 100 µM (inactive) in each case. Besides, the GI50 in the test with ACHN, in the test on UO-31, in the test with SF-268, in the test on MDA-MB-231, with K562 and in the test on Malme-3M was > 100 µM (inactive) each time. Further, the GI50 in the test with PC-3 is > 100 µM (inactive); with MDA-MB-435 it was > 100 µM (inactive); in the test with HOP-62, > 100 µM (inactive); with HCT-15, more than 100 µM.

For the molecule `CC(=O)N1C(Nc2nccs2)CCN1c1ccccc1` (centres undefined), the GI50 with HOP-92, in the test with SK-MEL-28, in the test on T47D, in the test on LOX IMVI, with M14 and in the test with 786-0 was > 10 µM (inactive) each time. Further, the GI50 with ACHN, with SF-268, in the test with MDA-MB-231, in the test on HT-29, with K562 and in the test with Malme-3M was > 10 µM (inactive) in each case. Also, the GI50 in the test on PC-3 is > 10 µM (inactive); in the test with MDA-MB-435, > 10 µM (inactive); in the test with MOLT-4, > 10 µM (inactive); with HOP-62, > 10 µM (inactive); with HCT-15, more than 10 µM.

On to `Cc1ccc(NC(=O)c2cc(S(=O)(=O)Nc3n[nH]c(=O)n3-c3ccccc3)c(S)cc2Cl)cc1`, for which the GI50 with HOP-92, in the test on SK-MEL-28, with T47D, with LOX IMVI, with M14 and with 786-0 was > 100 µM (inactive) throughout. In addition, the GI50 in the test with UO-31, in the test on SF-268, in the test on MDA-MB-231, in the test with HT-29, in the test with K562 and in the test on Malme-3M was > 100 µM (inactive) each time. The GI50 in the test on PC-3 was > 100 µM (inactive); in the test with MDA-MB-435 it was > 100 µM (inactive); in the test with MOLT-4, > 100 µM (inactive); in the test with HCT-15, more than 100 µM.

With `NC(Cc1ccccc1)C(=O)NC(Cc1ccccc1)NC(=O)C(Cc1c[nH]c2ccccc12)C(=O)O` (centres undefined), the GI50 with HOP-92 is 34.8 µM (inactive); with SK-MEL-28, > 100 µM (inactive); in the test with T47D, > 100 µM (inactive); with LOX IMVI, > 100 µM (inactive); with M14, > 100 µM (inactive); with 786-0, > 100 µM (inactive). In addition, the GI50 is > 100 µM (inactive) in the test on ACHN; 51.9 µM (inactive) in the test on UO-31; > 100 µM (inactive) with SF-268; > 100 µM (inactive) in the test with MDA-MB-231; > 100 µM (inactive) in the test with HT-29; > 100 µM (inactive) in the test with Malme-3M. In addition, the GI50 with PC-3 is > 100 µM (inactive); in the test with MDA-MB-435, > 100 µM (inactive); in the test on HOP-62 it was > 100 µM (inactive); with HCT-15, more than 100 µM.

`C/C=C\C(CC(=O)NCCc1c[nH]c2ccccc12)CC(=O)OC` (centres undefined): the GI50 in the test with HOP-92, in the test on SK-MEL-28, with T47D, with M14, in the test with 786-0 and in the test on ACHN was > 100 µM (inactive) throughout. The GI50 in the test on UO-31, in the test on SF-268, in the test with MDA-MB-231, with HT-29, with K562 and in the test on Malme-3M was > 100 µM (inactive) in each case. Further, the GI50 with PC-3 was > 100 µM (inactive); in the test on MDA-MB-435, > 100 µM (inactive); with MOLT-4, > 100 µM (inactive); in the test with HOP-62 it was > 100 µM (inactive); with HCT-15 it was more than 100 µM.

As for `CCCCCCCCCCCCCCCCCCOCC(CCP(=O)(CP(=O)(O)O)Oc1ccccc1)OCCCCCCCCCCCCCCCCCC` (centres undefined), the GI50 in the test with HOP-92, in the test on SK-MEL-28, in the test on T47D, in the test on LOX IMVI, with M14 and in the test on 786-0 was > 100 µM (inactive) throughout. For the same molecule, the GI50 in the test with ACHN, in the test on SF-268, in the test on MDA-MB-231, in the test with HT-29, in the test with K562 and in the test with Malme-3M was > 100 µM (inactive) each time. For the same molecule, the GI50 in the test with PC-3 is > 100 µM (inactive); in the test on MDA-MB-435 it was > 100 µM (inactive); in the test on MOLT-4, > 100 µM (inactive); in the test on HOP-62 it was > 100 µM (inactive); with HCT-15 it was more than 100 µM.

For the molecule `COC(=O)C1=C(CCCCO[Si](C)(C)C(C)(C)C)NC(=O)N2[C@@H](CCOCc3ccccc3)CC[C@H]12`, the GI50 is 15.5 µM (inactive) with HOP-92; 30.5 µM (inactive) in the test on SK-MEL-28; 15.8 µM (inactive) in the test with T47D; 25.8 µM (inactive) in the test with M14; 15.9 µM (inactive) in the test on 786-0; 29.1 µM (inactive) in the test with ACHN. In addition, the GI50 with UO-31 is 19.5 µM (inactive); in the test on SF-268, 25.8 µM (inactive); in the test with MDA-MB-231, 18.2 µM (inactive); with HT-29, 12.3 µM (inactive); in the test on K562, 25.1 µM (inactive); in the test with Malme-3M, 19.4 µM (inactive). Further, the GI50 with PC-3 was 21.1 µM (inactive); with MDA-MB-435, 24 µM (inactive); with MOLT-4, 18.4 µM (inactive); in the test with HOP-62 it was 24.2 µM (inactive); in the test with HCT-15, 17.8 µM.

As to `CN1c2ccccc2C(=O)Nc2cnc(Cl)nc21`, the GI50 is 35.7 µM (inactive) in the test on HOP-92; > 100 µM (inactive) in the test on SK-MEL-28; > 100 µM (inactive) in the test with T47D; > 100 µM (inactive) in the test on LOX IMVI; > 100 µM (inactive) with M14; 35.8 µM (inactive) with 786-0. Also, the GI50 in the test on ACHN was > 100 µM (inactive); with UO-31 it was > 100 µM (inactive); in the test with MDA-MB-231 it was 44.3 µM (inactive); in the test with HT-29, > 100 µM (inactive); in the test on K562, > 100 µM (inactive); in the test on Malme-3M it was > 100 µM (inactive). For the same molecule, the GI50 was > 100 µM (inactive) in the test with PC-3; > 100 µM (inactive) with MDA-MB-435; > 100 µM (inactive) in the test on MOLT-4; 31.1 µM (inactive) in the test on HOP-62; more than 100 µM in the test with HCT-15.

For `CC(=O)Oc1ccc2oc(=O)cc(C)c2c1`, the GI50 in the test with HOP-92, in the test with SK-MEL-28, in the test with T47D, with LOX IMVI, in the test on M14 and in the test on 786-0 was > 100 µM (inactive) throughout. The GI50 with ACHN, in the test with UO-31, with SF-268, with MDA-MB-231, in the test on HT-29 and in the test on K562 was > 100 µM (inactive) throughout. Also, the GI50 in the test with Malme-3M was > 100 µM (inactive); in the test with PC-3 it was > 10 µM (inactive); in the test with MDA-MB-435 it was > 100 µM (inactive); in the test with MOLT-4 it was > 100 µM (inactive); with HOP-62, > 100 µM (inactive).

Take `CC(C)[C@@H]1OC(=O)[C@@H](C)NC(=O)[C@@H]2CCCN2C1=O` (cyclo([Hiv]-Pro-[dA])): the GI50 in the test on HOP-92, in the test on SK-MEL-28, with T47D, with LOX IMVI, with M14 and in the test with 786-0 was > 100 µM (inactive) in each case. In addition, the GI50 with ACHN, in the test with SF-268, in the test with MDA-MB-231, in the test with HT-29, with Malme-3M and with PC-3 was > 100 µM (inactive) each time. For the same molecule, the GI50 is > 100 µM (inactive) in the test with MDA-MB-435, > 100 µM (inactive) in the test on MOLT-4, > 100 µM (inactive) with HOP-62 and more than 100 µM in the test with HCT-15.
